According to US6914045B2, “Glycopeptide antibiotics” (Wyeth Holdings Corporation, priority 2001, dated 2005):
≈ marks a conversion by molar mass, not a printed value.

Experiments:
Test in all cases: in vitro antibacterial evaluation, MIC by broth dilution
Assay type in all cases: cell-based
Streptococcus sp. = conditions: broth dilution, 18 hours at 35° C.
Summary of the method: (§1)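 Test organisms, which included recent clinical isolates resistant to methicillin, penicillin and/or vancomycin, were inoculated at 5×10^5 CFU/mL into Muller-Hinton II […] containing antibiotic at 64-0.06 μg/mL. Minimum inhibitory concentrations were then read as the lowest level inhibiting growth.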

Staphylococcus sp. = conditions: broth dilution, 18 hours at 35° C.
Summary of the method: as §1

Enterococcus sp. = conditions: broth dilution, 18 hours at 35° C.
Summary of the method: as §1

Escherichia coli = conditions: 18 hours at 35° C.

- MIC Streptococcus agalactiae (GC 4564) (Streptococcus sp.): <0.12 µg/mL
- MIC Streptococcus pneumoniae (ATCC 6301) (Streptococcus sp.): <0.12 µg/mL
- MIC Streptococcus pneumoniae (GC 1894) (Streptococcus sp.): <0.12 µg/mL
- MIC Streptococcus pneumoniae (GC 4565) (Streptococcus sp.): <0.12 µg/mL
- MIC Streptococcus pyogenes (GC 4563) (Streptococcus sp.): <0.12 µg/mL
- MIC Streptococcus pneumoniae (ATCC 6301) (Streptococcus sp.; inoculum 5×10^5 CFU/mL, strain ATCC 6301): <0.12 µg/mL
- MIC Streptococcus pneumoniae (GC 1894) (Streptococcus sp.; inoculum 5×10^5 CFU/mL, strain GC 1894): <0.12 µg/mL
- MIC Streptococcus pyogenes (GC 4563) (Streptococcus sp.; inoculum 5×10^5 CFU/mL, strain GC 4563): <0.12 µg/mL
- MIC Streptococcus agalactiae (GC 4564) (Streptococcus sp.; inoculum 5×10^5 CFU/mL, strain GC 4564): <0.12 µg/mL
- MIC Streptococcus pneumoniae (GC 4565) (Streptococcus sp.; inoculum 5×10^5 CFU/mL, strain GC 4565): <0.12 µg/mL
- MIC Coagulase Negative Staphylococcus (GC 4547) (Staphylococcus sp.): 2 µg/mL (≈ 1.34 µM)
- MIC Coagulase Negative Staphylococcus (GC 4548) (Staphylococcus sp.): 0.5 µg/mL (≈ 0.335 µM)
- MIC Coagulase Negative Staphylococcus (GC 4549) (Staphylococcus sp.): 0.5 µg/mL (≈ 0.335 µM)
- MIC Coagulase Negative Staphylococcus (GC 4551) (Staphylococcus sp.): 1 µg/mL (≈ 0.67 µM)
- MIC Coagulase Negative Staphylococcus (GC 6257) (Staphylococcus sp.): 0.5 µg/mL (≈ 0.335 µM)
- MIC Staphylococcus aureus (ATCC 29213) (Staphylococcus sp.): 1 µg/mL (≈ 0.67 µM)
- MIC Staphylococcus aureus (GC 1131) (Staphylococcus sp.): 2 µg/mL (≈ 1.34 µM)
- MIC Staphylococcus aureus (GC 3051) (Staphylococcus sp.): 2 µg/mL (≈ 1.34 µM)
- MIC Staphylococcus aureus (GC 3053) (Staphylococcus sp.): 2 µg/mL (≈ 1.34 µM)
- MIC Staphylococcus aureus (GC 4541) (Staphylococcus sp.): 2 µg/mL (≈ 1.34 µM)
- MIC Staphylococcus aureus (GC 4542) (Staphylococcus sp.): 2 µg/mL (≈ 1.34 µM)
- MIC Staphylococcus aureus (GC 4544) (Staphylococcus sp.): 2 µg/mL (≈ 1.34 µM)
- MIC Staphylococcus aureus (GC 4545) (Staphylococcus sp.): 2 µg/mL (≈ 1.34 µM)
- MIC Staphylococcus aureus-SMITH (GC 4543) (Staphylococcus sp.): 1 µg/mL (≈ 0.67 µM)
- MIC Staphylococcus aureus (ATCC 29213) (Staphylococcus sp.; strain ATCC 29213): 1 µg/mL (≈ 0.67 µM)
- MIC Staphylococcus aureus (GC 1131) (Staphylococcus sp.; strain GC 1131): 2 µg/mL (≈ 1.34 µM)
- MIC Staphylococcus aureus (GC 3051) (Staphylococcus sp.; strain GC 3051): 2 µg/mL (≈ 1.34 µM)
- MIC Staphylococcus aureus (GC 3053) (Staphylococcus sp.; strain GC 3053): 2 µg/mL (≈ 1.34 µM)
- MIC Staphylococcus aureus (GC 4541) (Staphylococcus sp.; strain GC 4541): 2 µg/mL (≈ 1.34 µM)
- MIC Staphylococcus aureus (GC 4542) (Staphylococcus sp.; strain GC 4542): 2 µg/mL (≈ 1.34 µM)
- MIC Staphylococcus aureus-SMITH (GC 4543) (Staphylococcus sp.; strain GC 4543): 1 µg/mL (≈ 0.67 µM)
- MIC Staphylococcus aureus (GC 4544) (Staphylococcus sp.; strain GC 4544): 2 µg/mL (≈ 1.34 µM)
- MIC Staphylococcus aureus (GC 4545) (Staphylococcus sp.; strain GC 4545): 2 µg/mL (≈ 1.34 µM)
- MIC Coagulase Negative Staphylococcus (GC 4547) (Staphylococcus sp.; strain GC 4547): 2 µg/mL (≈ 1.34 µM)
- MIC Coagulase Negative Staphylococcus (GC 4548) (Staphylococcus sp.; strain GC 4548): 0.5 µg/mL (≈ 0.335 µM)
- MIC Coagulase Negative Staphylococcus (GC 4549) (Staphylococcus sp.; strain GC 4549): 0.5 µg/mL (≈ 0.335 µM)
- MIC Coagulase Negative Staphylococcus (GC 4551) (Staphylococcus sp.; strain GC 4551): 1 µg/mL (≈ 0.67 µM)
- MIC Coagulase Negative Staphylococcus (GC 6257) (Staphylococcus sp.; strain GC 6257): 0.5 µg/mL (≈ 0.335 µM)
- MIC Enterococcus avium (GC 4558) (Enterococcus sp.): 4 µg/mL (≈ 2.68 µM)
- MIC Enterococcus faecalis (ATCC 29212) (Enterococcus sp.): 4 µg/mL (≈ 2.68 µM)
- MIC Enterococcus faecalis (GC 2242) (Enterococcus sp.): 4 µg/mL (≈ 2.68 µM)
- MIC Enterococcus faecalis (GC 2691) (Enterococcus sp.): 8 µg/mL (≈ 5.36 µM)
- MIC Enterococcus faecalis (GC 3059) (Enterococcus sp.): 4 µg/mL (≈ 2.68 µM)
- MIC Enterococcus faecalis (GC 4552) (Enterococcus sp.): 4 µg/mL (≈ 2.68 µM)
- MIC Enterococcus faecalis (GC 4553) (Enterococcus sp.): 4 µg/mL (≈ 2.68 µM)
- MIC Enterococcus faecalis (GC 4554) (Enterococcus sp.): 4 µg/mL (≈ 2.68 µM)
- MIC Enterococcus faecalis (GC 6189) (Enterococcus sp.): 4 µg/mL (≈ 2.68 µM)
- MIC Enterococcus faecium (GC 2243) (Enterococcus sp.): 4 µg/mL (≈ 2.68 µM)
- MIC Enterococcus faecium (GC 4556) (Enterococcus sp.): 4 µg/mL (≈ 2.68 µM)
- MIC Enterococcus faecium (GC 4557) (Enterococcus sp.): 4 µg/mL (≈ 2.68 µM)
- MIC Enterococcus faecalis (ATCC 29212) (Enterococcus sp.; inoculum 5×10^5 CFU/mL, strain ATCC 29212): 4 µg/mL (≈ 2.68 µM)
- MIC Enterococcus faecalis (GC 2242) (Enterococcus sp.; inoculum 5×10^5 CFU/mL, strain GC 2242): 4 µg/mL (≈ 2.68 µM)
- MIC Enterococcus faecium (GC 2243) (Enterococcus sp.; inoculum 5×10^5 CFU/mL, strain GC 2243): 4 µg/mL (≈ 2.68 µM)
- MIC Enterococcus faecalis (GC 2691) (Enterococcus sp.; inoculum 5×10^5 CFU/mL, strain GC 2691): 8 µg/mL (≈ 5.36 µM)
- MIC Enterococcus faecalis (GC 3059) (Enterococcus sp.; inoculum 5×10^5 CFU/mL, strain GC 3059): 4 µg/mL (≈ 2.68 µM)
- MIC Enterococcus faecalis (GC 4552) (Enterococcus sp.; inoculum 5×10^5 CFU/mL, strain GC 4552): 4 µg/mL (≈ 2.68 µM)
- MIC Enterococcus faecalis (GC 4553) (Enterococcus sp.; inoculum 5×10^5 CFU/mL, strain GC 4553): 4 µg/mL (≈ 2.68 µM)
- MIC Enterococcus faecalis (GC 4554) (Enterococcus sp.; inoculum 5×10^5 CFU/mL, strain GC 4554): 4 µg/mL (≈ 2.68 µM)
- MIC Enterococcus faecium (GC 4556) (Enterococcus sp.; inoculum 5×10^5 CFU/mL, strain GC 4556): 4 µg/mL (≈ 2.68 µM)
- MIC Enterococcus faecium (GC 4557) (Enterococcus sp.; inoculum 5×10^5 CFU/mL, strain GC 4557): 4 µg/mL (≈ 2.68 µM)
- MIC Enterococcus avium (GC 4558) (Enterococcus sp.; inoculum 5×10^5 CFU/mL, strain GC 4558): 4 µg/mL (≈ 2.68 µM)
- MIC Enterococcus faecalis (GC 6189) (Enterococcus sp.; inoculum 5×10^5 CFU/mL, strain GC 6189): 4 µg/mL (≈ 2.68 µM)
- MIC Escherichia coli (ATCC 25922) (Escherichia coli): >128 µg/mL
- MIC Escherichia coli (GC 4559) (Escherichia coli): >128 µg/mL
- MIC Escherichia coli (GC 4560) (Escherichia coli): 2 µg/mL (≈ 1.34 µM)
SMILES: CC(c1ccccc1)C1NC(=O)CNC(=O)C(CO)NC(=O)C(C(O)C2CNC(=N)N2C2OC(CO)C(O)C(O)C2O)NC(=O)C(C(O)C2CNC(=N)N2)NC(=O)C(Cc2ccc(OC3OC(CO)C(OC4OC(CO)C(O)C(OCc5ccc(OCc6ccccc6)cc5)C4O)C(O)C3O)cc2)NC1=O (stereo not drawn) [Example 231c, Cyclo[glycyl-β-methylphenylalanyl-O-[4-O-[3-O-[4-(phenylmethoxy)benzyl]hexopyranosyl]-hexopyranosyl]tyrosyl-3-(2-iminoimidazolidin-4-yl)seryl-3-(3-hexopyranosyl-2-iminoimidazolidin-4-yl)serylseryl]]
- MIC Staphylococcus haemolyticus (GC 4546) (Staphylococcus sp.): 1 µg/mL (≈ 0.67 µM)
- MIC Staphylococcus haemolyticus (GC 4546) (Staphylococcus sp.; strain GC 4546): 1 µg/mL (≈ 0.67 µM)
